Source: patent US20070117743A1, “New antitumoral compounds” (priority 2003, published 2007)
Where two headings read alike, the source gives them in different places. Where a SMILES comes first, the peptide text is derived from it. Bridges are numbered along the chain shown (N, C = ends). [ ]: non-standard residue; d: D form. The star is where a group is joined. d(aIle) = CC[C@H](C)[C@@H](N)C(=O)O; d(aThr) = C[C@@H](O)[C@@H](N)C(=O)O; Hexanoyl(5-Me) = CC(C)CCCC(=O)*; Orn = NCCC[C@H](N)C(=O)O; Dhb = C/C=C(\N)C(=O)O

How the values were obtained:
Format in all cases: cell-based, human
[1] = tested on: HT-29; assay: SRB colorimetric assay of cell growth and viability, HT-29; details: 48 hours exposure; for GI50: read-out: GI50 HT-29; for CC50: read-out: LC50 HT-29
Excerpt: (§1) The finality of this assay is to interrupt the growth of a “in vitro” tumor cell culture by means a continued exhibition of the cells to the sample to be testing.
(§2) This form of the assay employs 96 well cell culture microplates of 9 mm diameter (Faircloth, 1988; Mosmann, 1983). Most of the cell lines are obtained from American Type Culture Collection (ATCC) derived from different human cancer types.
(§3) Cells are maintained in RPMI 1640 10% FBS, supplemented with 0.1 g/l penicillin and 0.1 g/l streptomycin sulfate and then incubated at 37° C., 5% CO2 and 98% humidity. For the experiments, cells were harvested from subconfluent cultures using trypsin and resuspended in fresh medium before plating.
(§4) Cells are seeded in 96 well microtiter plates, at 5×10^3 cells per well in aliquots of 195 μL medium, and they are allowed to attach to the plate surface by growing in drug free medium for 18 hours. Afterward, samples are added in aliquots of 5 μL in a ranging from 10 to 10^−8 μg/mL, dissolved in DMSO:EtOH:PBS (0.5:0.5:99). After 48 hours exposure, the antitumor effect are measured by the SRB methodology: cells are fixed by adding 50 μL of cold 50% (wt/vol) trichloroacetic acid (TCA) and incubating for 60 minutes at 4° C. Plates are washed with deionized water and dried. One hundred μL of SRB solution (0.4% wt/vol in 1% acetic acid) is added to each microtiter well and incubated for 10 minutes at room temperature. Unbound SRB is removed by washing with 1% acetic acid. Plates are air dried and bound stain is solubilized with Tris buffer. Optical densities are read on a automated spectrophotometric plate reader at a single wavelength of 490 nm.
(§5) The values for mean+/− SD of data from triplicate wells are calculated. Some parameters for cellular responses can be calculated: GI=growth inhibition, TGI=total growth inhibition (cytostatic effect) and LC=cell killing (cytotoxic effect).

[2] = tested on: SK-MEL-28; assay: SRB colorimetric assay of cell growth and viability, SK-MEL-28; details: 48 hours exposure; for CC50: read-out: LC50 MEL-28
Excerpt: as §1, §2, §3, §4, §5

[3] = tested on: IGROV-ET; assay: SRB colorimetric assay of cell growth and viability, IGROV-ET; details: 48 hours exposure; for CC50: read-out: LC50 IGROV-ET
Excerpt: as §1, §2, §3, §4, §5

[4] = tested on: LoVo-Dox; assay: SRB colorimetric assay of cell growth and viability, LoVo-Dox; details: 48 hours exposure; for CC50: read-out: LC50 LOVO-DOX
Excerpt: as §1
A colorimetric type of assay, using sulforhodamine B (SRB) reaction has been adapted for a quantitative measurement of cell growth and viability [following the technique described by Philip Skehan, et al. (1990), New colorimetric cytotoxicity assay for anticancer drug screening, J. Natl. Cancer Inst., 82:1107-1112].
as §2, §3, §4, §5

[5] = tested on: DU-145; assay: SRB colorimetric assay of cell growth and viability, DU-145; details: 48 hours exposure
Excerpt: as §1, §2, §3, §4, §5

[6] = tested on: PANC-1; assay: SRB colorimetric assay of cell growth and viability, PANC-1; details: 48 hours exposure; for CC50: read-out: LC50 PANC-1
Excerpt: as §1, §2, §3, §4, §5

[7] = tested on: IGROV-1; assay: SRB colorimetric assay of cell growth and viability, IGROV-1; details: 48 hours exposure
Excerpt: as §1, §2, §3, §4, §5

[8] = tested on: HeLa-APL; assay: SRB colorimetric assay of cell growth and viability, HeLa-APL; details: 48 hours exposure; for CC50: read-out: LC50 HELA-APL
Excerpt: as §1, §2, §3, §4, §5

[9] = tested on: HeLa; assay: SRB colorimetric assay of cell growth and viability, HeLa; details: 48 hours exposure; for CC50: read-out: LC50 HELA
Excerpt: as §1, §2, §3, §4, §5

[10] = tested on: LoVo; assay: SRB colorimetric assay of cell growth and viability, LoVo; details: 48 hours exposure; for CC50: read-out: LC50 LOVO
Excerpt: as §1, §2, §3, §4, §5

[11] = tested on: A-549; assay: SRB colorimetric assay of cell growth and viability, A-549; details: 48 hours exposure; for GI50: read-out: GI50 A-549; for CC50: read-out: LC50 A-549
Excerpt: as §1, §2, §3, §4, §5

[12] = tested on: K-562; assay: SRB colorimetric assay of cell growth and viability, K-562; details: 48 hours exposure; for CC50: read-out: LC50 K-562
Excerpt: as §1, §2, §3, §4, §5

C/C=C1\NC(=O)[C@H](Cc2ccccc2)NC(=O)[C@@H](C(C)C)NC(=O)[C@@H]([C@@H](C)CC)NC(=O)[C@H](NC(=O)[C@H](NC(=O)[C@H](CCCN)NC(=O)[C@H]2CCCN2C(=O)[C@H](NC(=O)[C@@H](NC(=O)[C@@H](NC(=O)CNC(=O)CCCC(C)C)[C@@H](C)O)C(C)C)C(C)C)[C@@H](C)CC)[C@@H](C)OC(=O)[C@H](C(C)C)NC1=O [Compound 33, [Gly^13]-KF]
5.27 µM: GI50 [3]
3.08E−06 Molar: TGI A-549 [11]
6.32 µM: GI50 [2]
4.51 µM: GI50 [1]
6.96E−06 Molar: TGI HT-29 [1] | TGI MEL-28 [2] | TGI IGROV-ET [3] | TGI LOVO-DOX [4] | TGI DU-145 [5] | TGI IGROV [7] | TGI HELA-APL [8] | TGI LOVO [10] | TGI K-562 [12]
3.99 µM: GI50 [10]
6.96 µM: CC50 [1] | CC50 [2] | CC50 [3] | CC50 [4] | GI50 [5] | LC50 (concentration causing 50% net cell kill) [5] | GI50 [7] | LC50 (concentration causing 50% net cell killing) [7] | GI50 [8] | CC50 [8] | CC50 [9] | CC50 [10] | CC50 [11] | GI50 [12] | CC50 [12]
1.70E−06 Molar: TGI PANC-1 [6]
0.954 µM: GI50 [9]
0.385 µM: GI50 [6]
0.982 µM: GI50 [11]
3.22E−06 Molar: TGI HELA [9]
5.04 µM: CC50 [6]
4.85 µM: GI50 [4]

C/C=C1\NC(=O)[C@H](Cc2ccccc2)NC(=O)[C@@H](C(C)C)NC(=O)[C@@H]([C@@H](C)CC)NC(=O)[C@H](NC(=O)[C@H](NC(=O)[C@H](CCCN)NC(=O)[C@H]2CCCN2C(=O)[C@H](NC(=O)[C@@H](NC(=O)[C@H](CCCN)NC(=O)CCCC(C)C)C(C)C)C(C)C)[C@@H](C)CC)[C@@H](C)OC(=O)[C@H](C(C)C)NC1=O [Compound 57, [Orn^12, noD-Val^13]-KF] ({Hexanoyl(5-Me)}-[Orn]V[dV][dP][Orn][d(aIle)][d(aThr)][d(aIle)][dV]F[Dhb]V; ester 7-C)
≥ 7.18 µM: GI50 ([1]; SRB) | CC50 ([1]; SRB) | GI50 [2] | CC50 [2] | GI50 [3] | CC50 [3] | GI50 ([4]; SRB) | CC50 ([4]; SRB) | GI50 [5] | LC50 (concentration causing 50% net cell kill) [5] | CC50 ([6]; SRB) | GI50 [7] | LC50 (concentration causing 50% net cell killing) [7] | GI50 ([8]; SRB) | CC50 ([8]; SRB) | GI50 ([9]; SRB) | CC50 ([9]; SRB) | GI50 ([10]; SRB) | CC50 ([10]; SRB) | GI50 ([11]; SRB) | CC50 ([11]; SRB) | GI50 ([12]; SRB) | CC50 ([12]; SRB)
7.18E−06 Molar: TGI HT-29 ([1]; SRB) | TGI MEL-28 [2] | TGI IGROV-ET [3] | TGI LOVO-DOX ([4]; SRB) | TGI DU-145 [5] | TGI PANC-1 ([6]; SRB) | TGI IGROV [7] | TGI HELA-APL ([8]; SRB) | TGI HELA ([9]; SRB) | TGI LOVO ([10]; SRB) | TGI A-549 ([11]; SRB) | TGI K-562 ([12]; SRB)
3.88 µM: GI50 ([6]; SRB)
